Assay results reported in patent publication US20100034839A1, “METHODS FOR TREATING VIRAL DISORDERS” (priority 2008, published 2010).

Tests used:
[1] = tested on: CLIP^+ B cells in human PBMC; assay: Peptide replacement of CLIP on R848-activated human PBMC B cells; assay type: cell-based; details: PBMC of two donors cultured with R848 for 48 hours with peptide
Method: FIG. 13 depicts TLR activation results in ectopic CLIP expression on human B cells from peripheral blood mononuclear cells (PBMC) cultures. FIG. 13a: human PBMC from five donors were cultured for 24 hours with toll ligands (CpG-ODN, LPS, Pam3Cys, and Poly I:C) and were stained with a pan anti-HLA-DR-FITC antibody (values of isotype controls were subtracted from the specific stains, ΔMFI). FIG. 13b: cells were stained using anti-human CLIP-FITC versus CD19-PE (values of isotype controls were subtracted from the specific stains, ΔMFI). For FIGS. 13a & 13b: nil vs. CpG p=0.06821; nil vs. LPS p=0.0390; nil vs. PAM p=0.0124. FIG. 13c: cells were stained for CLIP-FITC versus CD19-PE as described for FIG. 13b. The data represent the percent of total PBMC that are CLIP+ B cells subsequent to treatment. For FIG. 13c: nil vs. CpG p=0.0058; nil vs. LPS p=0.0254. […]
PBMC were prepared from a total of seven adult normal donors, five for examining the effects of TLR binding on the percentage of ectopic CLIP^+ B cells and changes in mean fluorescence intensity of the CLIP staining resulting from TLR stimulation with CpG-ODN, LPS, Pam-3-Cys, and Poly I:C. […] Cells were analyzed using either a BD FacsCalibur, for the five samples, or a Coulter FC500 for the two tissue typed samples. […]

[2] = tested on: cell surface CLIP on Raji and Daudi cells; assay: Competition of synthetic peptides with cell surface CLIP (Fitc anti-human CLIP); assay type: cell-based; details: biotinylated competing peptide
Text: Based on a computational model comparing the peptide content of TNP mixture and identifying those peptides that would have the likeliest ability to compete for the peptide/antigen binding site for MHC class II (human HLA-DR, DP, and DQ), several peptide candidates were synthesized and examined for activity. The purpose of the study was to determine if synthetic peptides can compete for binding with CLIP peptides as measured with either Fitc anti-human CLIP antibody or, comparatively in the case of biotinylated peptides, with Streptavidin.
Cell Culture Conditions: The Raji and Daudi cell lines were purchased from American Type Culture Collection, were thawed, and grown in RPMI 1640 medium supplemented with standard supplements, including 10% fetal calf serum, gentamycin, penicillin, streptomycin, sodium pyruvate, HEPES buffer, 1-glutamine, and 2-ME.
Protocol: Cells were plated into a 12 well plate with 3 mls total volume containing approximately 1.5×10^6/well for Daudi cells and 3.0×10^6/well for Raji cells. Treatment groups included no treatment as control; MKN 3 and MKN 5 at 50 microMolar final concentration based on the reported molarity of the synthesized compounds.
The cells were incubated at 37° C. in an atmosphere containing 5% CO2 and approximately 92% humidity. The cells were incubated for 4 and 24 hours. At each time point, the cells from that experimental time were harvested and stained for flow cytometric analysis of cell surface expression of CLIP (MHC Class II invariant peptide, human) by using the commercially available (Becton/Dickinson/PHarmingen) anti-human CLIP Fitc. Catalogue #555981 versus Streptavidin.
Harvested cells were stained using standard staining procedure that called for a 1:100 dilution of Fitc-anti-human CLIP or isotype control versus 1:200 dilution of the commercially prepared Streptavidin. Following staining on ice for 25 minutes, cells were washed with PBS/FCS and resuspended in 100 microliters and added to staining tubes containing 400 microliters of PBS. Samples were acquired and analyzed on a Coulter Excel Flow Cytometer.
In the Histogram analyses of FIGS. 5-7 the Y axis represents cell number of the 5000 live cells versus the X axis which is a reflection of relative Fitc fluorescence versus Streptavidin-PE (eBioscience, Cat. #12-4317) that will bind with high affinity to cell-bound biotinylated peptides. The distance between the histogram from the isotype control staining versus the histogram reflecting the specific stain and is a measure of level of cell surface CLIP or the biotinylated peptide when stained with Streptavidin on a population of live Raji or Daudi cells as indicated.

FRIMAVLAS
percentage of CLIP^+ B cells and level of CLIP per B cell [1]: reduced the percentage of CLIP^+ B cells and the level of CLIP per B cell to pre-treatment levels
cell surface bound CLIP ([2]; 4 hours): small decreases in cell surface bound CLIP
cell surface bound CLIP ([2]; 24 hours): significant decreases
